{"source": "patent US20140088035A1", "about": "“TREATING SCHIZOPHRENIA” (THE GENERAL HOSPITAL CORPORATION, priority 2010, published 2014)", "origin": "cited, not measured here", "system": "schizophrenia patients", "settings": "vitamin supplementation regimens; Levine et al. 2006, Godfrey et al. 1990"}
{"smiles": "Nc1nc2ncc(CNc3ccc(C(=O)N[C@@H](CCC(=O)O)C(=O)O)cc3)nc2c(=O)[nH]1", "note": "[folate, pteroyl-L-glutamic acid]", "values": [{"measurement": "symptomatic improvement in schizophrenia patients", "result": "associated with symptomatic improvement"}]}
